Each block holds one compound with its values, some of them ahead of it.
Experiments:
Details in all cases: binder
[1] = target: T1, GAK (Homo sapiens, UniProt O14976)
T1 sequence (O14976 1-1311): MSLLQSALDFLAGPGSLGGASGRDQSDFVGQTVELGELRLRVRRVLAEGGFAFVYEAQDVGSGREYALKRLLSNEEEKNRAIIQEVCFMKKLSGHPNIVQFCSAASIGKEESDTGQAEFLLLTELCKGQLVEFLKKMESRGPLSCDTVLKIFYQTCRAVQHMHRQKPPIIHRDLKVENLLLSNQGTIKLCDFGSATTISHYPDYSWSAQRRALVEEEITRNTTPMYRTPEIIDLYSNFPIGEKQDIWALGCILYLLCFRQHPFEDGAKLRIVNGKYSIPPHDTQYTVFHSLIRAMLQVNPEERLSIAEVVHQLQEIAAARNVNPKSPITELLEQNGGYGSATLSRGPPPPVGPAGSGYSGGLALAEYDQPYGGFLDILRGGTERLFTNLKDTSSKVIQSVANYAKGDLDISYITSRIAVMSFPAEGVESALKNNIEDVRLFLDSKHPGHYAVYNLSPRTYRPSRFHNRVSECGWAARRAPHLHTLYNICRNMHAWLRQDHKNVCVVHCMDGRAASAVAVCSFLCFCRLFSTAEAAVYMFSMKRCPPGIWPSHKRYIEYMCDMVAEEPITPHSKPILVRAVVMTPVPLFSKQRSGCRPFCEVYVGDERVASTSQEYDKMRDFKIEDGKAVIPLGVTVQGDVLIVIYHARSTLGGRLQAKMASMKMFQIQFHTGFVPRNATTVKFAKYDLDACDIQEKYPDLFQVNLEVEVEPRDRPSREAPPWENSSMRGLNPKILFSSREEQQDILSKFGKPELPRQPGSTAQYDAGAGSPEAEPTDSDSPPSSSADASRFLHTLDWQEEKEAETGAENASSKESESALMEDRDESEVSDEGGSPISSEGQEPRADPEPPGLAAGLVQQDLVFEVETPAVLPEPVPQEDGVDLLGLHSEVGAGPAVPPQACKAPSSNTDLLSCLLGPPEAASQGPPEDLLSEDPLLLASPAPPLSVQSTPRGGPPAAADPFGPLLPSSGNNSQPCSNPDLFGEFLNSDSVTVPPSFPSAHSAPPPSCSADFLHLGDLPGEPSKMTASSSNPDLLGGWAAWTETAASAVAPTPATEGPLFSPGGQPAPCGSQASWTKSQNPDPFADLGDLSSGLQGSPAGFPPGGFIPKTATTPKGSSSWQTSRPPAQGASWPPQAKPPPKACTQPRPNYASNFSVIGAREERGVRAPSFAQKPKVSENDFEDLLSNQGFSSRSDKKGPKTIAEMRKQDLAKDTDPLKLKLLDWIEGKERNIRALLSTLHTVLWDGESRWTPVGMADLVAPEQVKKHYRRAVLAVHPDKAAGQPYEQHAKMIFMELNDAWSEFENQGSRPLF

[2] = target: T2, EphB3 (Homo sapiens, UniProt P54753)
T2 sequence (P54753 1-998): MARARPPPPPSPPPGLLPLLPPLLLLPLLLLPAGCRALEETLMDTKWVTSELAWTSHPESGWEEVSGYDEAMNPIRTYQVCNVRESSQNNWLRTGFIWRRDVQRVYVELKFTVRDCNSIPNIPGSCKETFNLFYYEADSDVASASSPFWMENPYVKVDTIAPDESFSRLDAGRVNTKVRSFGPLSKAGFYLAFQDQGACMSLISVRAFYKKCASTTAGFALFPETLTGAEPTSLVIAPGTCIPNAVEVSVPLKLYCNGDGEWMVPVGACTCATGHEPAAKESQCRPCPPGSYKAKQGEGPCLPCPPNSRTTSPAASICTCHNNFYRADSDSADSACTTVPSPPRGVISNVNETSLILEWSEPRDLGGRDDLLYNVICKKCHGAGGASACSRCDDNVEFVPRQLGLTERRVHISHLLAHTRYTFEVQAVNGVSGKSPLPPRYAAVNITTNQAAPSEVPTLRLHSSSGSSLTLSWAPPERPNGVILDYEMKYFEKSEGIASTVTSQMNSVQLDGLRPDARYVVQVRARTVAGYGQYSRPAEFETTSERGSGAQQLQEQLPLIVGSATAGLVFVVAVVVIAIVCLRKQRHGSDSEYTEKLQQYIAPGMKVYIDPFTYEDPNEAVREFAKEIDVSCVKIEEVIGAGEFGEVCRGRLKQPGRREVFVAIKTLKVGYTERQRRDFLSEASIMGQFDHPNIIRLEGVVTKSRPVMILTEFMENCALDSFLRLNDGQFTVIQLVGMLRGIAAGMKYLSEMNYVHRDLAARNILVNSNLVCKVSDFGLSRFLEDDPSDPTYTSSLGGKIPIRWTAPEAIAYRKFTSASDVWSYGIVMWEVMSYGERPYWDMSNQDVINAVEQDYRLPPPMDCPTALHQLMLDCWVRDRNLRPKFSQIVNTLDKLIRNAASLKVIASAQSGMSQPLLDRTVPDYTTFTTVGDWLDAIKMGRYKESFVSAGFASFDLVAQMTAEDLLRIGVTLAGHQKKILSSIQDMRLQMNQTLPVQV

[3] = target: AAK1 (Homo sapiens, UniProt Q2M2I8)
[4] = target: OSR1 (Homo sapiens, UniProt O95747)
[5] = target: FGFR2 (Homo sapiens, UniProt P21802)
[6] = target: PCTAIRE1 (Homo sapiens, UniProt Q00536)
[7] = target: T3, NQO2A (Homo sapiens, UniProt P16083)
T3 sequence (P16083 1-231): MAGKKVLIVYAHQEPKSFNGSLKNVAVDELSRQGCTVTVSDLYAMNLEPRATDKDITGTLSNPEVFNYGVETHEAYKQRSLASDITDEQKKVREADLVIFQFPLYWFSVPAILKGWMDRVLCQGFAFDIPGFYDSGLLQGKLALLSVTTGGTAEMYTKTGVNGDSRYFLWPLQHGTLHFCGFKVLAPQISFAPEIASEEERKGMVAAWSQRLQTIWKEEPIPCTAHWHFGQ

OSR1, sequence (O95747 whole entry): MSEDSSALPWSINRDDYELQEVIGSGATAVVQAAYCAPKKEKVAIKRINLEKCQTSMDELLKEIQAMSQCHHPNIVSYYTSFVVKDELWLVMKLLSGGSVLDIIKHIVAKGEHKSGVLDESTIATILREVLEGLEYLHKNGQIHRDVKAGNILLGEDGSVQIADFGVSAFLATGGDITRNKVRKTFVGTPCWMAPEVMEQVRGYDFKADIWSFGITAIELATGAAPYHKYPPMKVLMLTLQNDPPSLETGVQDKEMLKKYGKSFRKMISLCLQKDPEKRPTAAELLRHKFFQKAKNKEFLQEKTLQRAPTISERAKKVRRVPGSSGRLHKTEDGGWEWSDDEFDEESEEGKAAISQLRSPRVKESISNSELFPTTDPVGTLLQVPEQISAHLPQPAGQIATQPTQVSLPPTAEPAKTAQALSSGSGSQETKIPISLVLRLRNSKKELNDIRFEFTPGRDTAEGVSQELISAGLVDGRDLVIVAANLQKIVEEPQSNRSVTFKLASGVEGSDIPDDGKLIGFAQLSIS
PCTAIRE1, sequence (Q00536 whole entry): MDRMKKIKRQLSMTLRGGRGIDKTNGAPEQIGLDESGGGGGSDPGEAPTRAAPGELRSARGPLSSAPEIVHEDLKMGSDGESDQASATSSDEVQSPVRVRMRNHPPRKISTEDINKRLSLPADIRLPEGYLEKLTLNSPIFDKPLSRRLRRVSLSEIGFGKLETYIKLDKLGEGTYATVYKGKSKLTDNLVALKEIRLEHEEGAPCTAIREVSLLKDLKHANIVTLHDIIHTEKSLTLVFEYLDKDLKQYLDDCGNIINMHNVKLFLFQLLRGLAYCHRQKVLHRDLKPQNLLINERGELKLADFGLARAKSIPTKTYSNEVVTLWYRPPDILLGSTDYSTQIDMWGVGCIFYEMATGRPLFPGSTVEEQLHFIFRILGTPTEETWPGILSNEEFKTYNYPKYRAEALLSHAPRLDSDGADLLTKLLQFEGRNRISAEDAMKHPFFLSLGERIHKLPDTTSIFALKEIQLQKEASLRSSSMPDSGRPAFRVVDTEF
FGFR2, sequence (P21802 whole entry): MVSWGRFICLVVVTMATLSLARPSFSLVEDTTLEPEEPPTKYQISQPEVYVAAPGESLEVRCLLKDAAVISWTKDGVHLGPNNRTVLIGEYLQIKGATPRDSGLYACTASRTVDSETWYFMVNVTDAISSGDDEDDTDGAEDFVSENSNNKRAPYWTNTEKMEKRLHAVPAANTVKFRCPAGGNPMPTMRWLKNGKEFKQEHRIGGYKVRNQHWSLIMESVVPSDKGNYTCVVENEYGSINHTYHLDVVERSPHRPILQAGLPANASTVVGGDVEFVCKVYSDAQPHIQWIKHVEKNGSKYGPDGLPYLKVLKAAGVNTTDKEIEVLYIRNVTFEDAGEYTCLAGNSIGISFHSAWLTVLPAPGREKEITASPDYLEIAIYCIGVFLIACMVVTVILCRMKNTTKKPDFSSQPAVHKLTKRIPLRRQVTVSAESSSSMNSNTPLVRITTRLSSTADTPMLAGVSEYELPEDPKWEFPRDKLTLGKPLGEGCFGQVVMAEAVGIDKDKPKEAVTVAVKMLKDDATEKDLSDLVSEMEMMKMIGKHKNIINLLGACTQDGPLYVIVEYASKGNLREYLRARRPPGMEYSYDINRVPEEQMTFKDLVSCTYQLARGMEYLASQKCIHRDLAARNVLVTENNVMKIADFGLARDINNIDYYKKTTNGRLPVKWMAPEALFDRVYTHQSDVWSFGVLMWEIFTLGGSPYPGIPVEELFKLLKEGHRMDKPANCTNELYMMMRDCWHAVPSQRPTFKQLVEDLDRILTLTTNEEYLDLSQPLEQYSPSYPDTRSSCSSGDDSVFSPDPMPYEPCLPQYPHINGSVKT
AAK1, sequence (Q2M2I8 whole entry): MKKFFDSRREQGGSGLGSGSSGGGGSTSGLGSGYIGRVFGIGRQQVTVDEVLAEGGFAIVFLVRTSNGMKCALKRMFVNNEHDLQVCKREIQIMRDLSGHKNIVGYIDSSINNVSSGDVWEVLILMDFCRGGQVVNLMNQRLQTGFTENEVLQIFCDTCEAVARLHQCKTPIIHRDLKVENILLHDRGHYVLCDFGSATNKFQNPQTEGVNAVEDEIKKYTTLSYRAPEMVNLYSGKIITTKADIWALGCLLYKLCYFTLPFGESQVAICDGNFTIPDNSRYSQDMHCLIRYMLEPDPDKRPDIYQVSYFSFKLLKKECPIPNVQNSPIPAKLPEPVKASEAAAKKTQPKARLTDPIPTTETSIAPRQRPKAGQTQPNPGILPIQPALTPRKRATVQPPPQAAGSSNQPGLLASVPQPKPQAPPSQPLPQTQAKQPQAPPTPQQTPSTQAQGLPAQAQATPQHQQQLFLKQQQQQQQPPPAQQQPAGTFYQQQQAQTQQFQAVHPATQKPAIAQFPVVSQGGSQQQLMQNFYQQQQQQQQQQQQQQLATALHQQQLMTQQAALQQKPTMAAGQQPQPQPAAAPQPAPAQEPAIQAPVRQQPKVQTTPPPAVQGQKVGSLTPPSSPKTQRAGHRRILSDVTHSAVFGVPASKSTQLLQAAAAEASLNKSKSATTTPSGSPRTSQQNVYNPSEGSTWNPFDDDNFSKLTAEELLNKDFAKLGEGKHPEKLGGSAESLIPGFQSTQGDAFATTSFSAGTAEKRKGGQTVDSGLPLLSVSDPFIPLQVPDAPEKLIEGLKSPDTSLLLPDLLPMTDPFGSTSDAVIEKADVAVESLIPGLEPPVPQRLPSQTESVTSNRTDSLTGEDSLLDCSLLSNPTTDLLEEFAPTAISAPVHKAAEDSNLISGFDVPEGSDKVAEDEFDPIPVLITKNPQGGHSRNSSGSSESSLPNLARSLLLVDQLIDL

dTm 33 [1]: 12.5 °C
dTm 33 [2]: 8.7 °C
dTm 33 [3]: 4.1 °C
dTm 33 [4]: 2.4 °C
dTm 33 [5]: 3.3 °C
dTm 33 [6]: 5.2 °C
dTm 33 [7]: 0.9 °C
SMILES: Cc1cccc(-c2ccc(-c3cc4cnc(Nc5ccc(F)c(CO)c5)nc4n(CCCCN)c3=O)c(Cl)c2)n1 [compound 33, 8-(4-Aminobutyl)-6-(2-chloro-4-(6-methylpyridin-2-yl)phenyl)-2-((4-fluoro-3-(hydroxymethyl)phenyl)amino)pyrido[2,3-d]pyrimidin-7(8H)-one]

dTm 34 [1]: 9.3 °C
dTm 34 [2]: 4.1 °C
dTm 34 [3]: 1.4 °C
dTm 34 [4]: 0.4 °C
dTm 34 [5]: 2.0 °C
dTm 34 [6]: 0.6 °C
dTm 34 [7]: -1.3 °C
SMILES: COc1ccc(O)c(Nc2ncc3cc(-c4ccc(-c5cccc(C)n5)cc4Cl)c(=O)n(CCCCN)c3n2)c1 [compound 34, 8-(4-Aminobutyl)-6-(2-chloro-4-(6-methylpyridin-2-yl)phenyl)-2-((2-hydroxy-5-methoxy-phenyl)amino)pyrido[2,3-d]pyrimidin-7(8H)-one]

dTm 35 [1]: 13.5 °C
dTm 35 [2]: 4.5 °C
dTm 35 [3]: 3.0 °C
dTm 35 [4]: 2.6 °C
dTm 35 [5]: 2.4 °C
dTm 35 [6]: 0.1 °C
dTm 35 [7]: -2.4 °C
SMILES: COc1cc(N2CCOCC2)ccc1Nc1ncc2cc(-c3ccc(-c4cccc(C)n4)cc3Cl)c(=O)n(CCCCN)c2n1 [compound 35, 8-(4-Aminobutyl)-6-(2-chloro-4-(6-methylpyridin-2-yl)phenyl)-2-((2-methoxy-4-morpholino-phenyl)amino)pyrido[2,3-d]pyrimidin-7(8H)-one]

dTm 36 [1]: 11.7 °C
dTm 36 [2]: 3.3 °C
dTm 36 [3]: 2.4 °C
dTm 36 [4]: 3.4 °C
dTm 36 [5]: 2.9 °C
dTm 36 [6]: 0.2 °C
dTm 36 [7]: -1.0 °C
SMILES: COc1cc(N2CCN(C)CC2)ccc1Nc1ncc2cc(-c3ccc(-c4cccc(C)n4)cc3Cl)c(=O)n(CCCCN)c2n1 [compound 36, 8-(4-Aminobutyl)-6-(2-chloro-4-(6-methylpyridin-2-yl)phenyl)-2-((2-methoxy-4-(4-methylpiperazin-1-yl)phenyl)amino)pyrido[2,3-d]pyrimidin-7(8H)-one]
